Data on one compound can be found in patent US20110034378A1, “Pharmaceutical Combinations Comprising Specified Age Breaker and Further Drugs, I.A. Antihypertensive Drugs, Antidiabetic Drugs Etc” (priority 2008, published 2011).

This experiment concerns obese Zucker spontaneously hypertensive fatty rats (Ob-ZSF1). As to the kind of experiment: Effect of compound 27 on diabetic cardiomyopathy and nephropathy in Ob-ZSF1 rats. The class given is in vivo, rat. The procedure: Aim: The aim of this study was to study the effect of compound 27 on diabetic cardiomyopathy and nephropathy in obese Zucker spontaneously hypertensive fatty rats (Ob-ZSF1), an animal model of diabetes with progressive cardiac and renal dysfunction.
Method: Male Ob-ZSF1 rats were implanted with telemetry transmitters. At the age of 3 months, rats were divided into two treatment groups, compound 27, 9 mg/kg ip bid and 27 mg/kg ip, bid and a control group to which vehicle was administered until study termination at 34 weeks. 0.5% salt was added in drinking water from […] of treatment for 6 weeks in order to accelerate the vasculopathy. At fixed predetermined time intervals, blood pressure, urine albumin and creatinine were monitored during the study. Terminal measurement of cardiac function was performed in the same animals using Millar Pressure Volume (P-V) System. PV loops were captured to establish cardiac functional parameters and differences in end systolic pressure volume relationship (ESPVR) and end diastolic pressure volume relationship (EDPVR) at different preloads. Heart and kidney were collected from same set of animals at termination for gross and microscopic histopathological examination and for gene expression studies.

Where [1] appears, read: 9 and 27 mg/kg ip bid, terminal Millar P-V measurement, vs vehicle control.
Where [2] appears, read: longitudinally over time, compared to control.
The mark [3] stands for this setting: persistent severe hyperglycemia.

Take `CS(=O)(=O)NNC(=O)c1ccc[n+](CC(=O)c2cccs2)c1.[Cl-]` [compound 27, 1-(2-thien-2′-yl-2-oxoethyl)-3-(methanesulfonyl hydrazinocarbonyl)pyridinium chloride]: the “Relative heart wet weight” value (27 mg/kg group) is “significantly lesser”. In addition, the “damage to cardiomyocytes, microscopic examination” value (27 mg/kg group, compared to the control group) was “less severe damage”. Moreover, the cardiac output entry (9 and 27 mg/kg ip bid, terminal Millar P-V measurement at 34 weeks, vs vehicle control) was “significant improvement”. Moreover, under setting [1], the diastolic relaxation entry is “more efficient”, the systolic contractile function result was “better” and the ventricular compliance result is “improved”. The “peripheral resistance (afterload)” value (9 and 27 mg/kg ip bid, vs vehicle control) is on record as “significant reduction”. Also, the “renal pathology observed microscopically” value (compared to control) is listed as “less severe”. In addition, under “compound 27 treated groups”, the “Inflammatory cytokine Interleukin-6 (IL-6)” value is “reduced significantly”. For the setting “higher dose group, compared to control”, the Renal function entry is given as “distinct improvement”. Besides, under setting [2], the “Percent increase from baseline for albumin to creatinine ratio” value is reported as “significantly reduced”, the “Percent increase from baseline for serial creatinine excretion” value is recorded as “significantly reduced” and the “Percent increase from baseline for urinary albumin excretion” value is on record as “significantly reduced”. Also, the “Brain natriuretic peptide (BNP) expression” value (marker of cardiac failure, compared to control animals) is given as “reduced”. Besides, under setting [3], the “cardiac function (conclusion)” value is “clearly preserved” and the “renal dysfunction (conclusion)” value was “reduced the severity”. Besides, the BP result (telemetry, compound 27 treated animals) is “reduction”.
